The values that follow come from patent publication US12357695B2, “Peptides and nanoparticles for intracellular delivery of molecules” (AADIGEN, LLC, priority 2019, dated 2025).

“Also recorded” adds a separate entry of the source. Square brackets hold non-standard residues; d marks the D form. Ends that are not written are not given here. Stearyl = stearyl group covalently linked to the N-terminus; Aun = NCCCCCCCCCCC(=O)O; βAla = NCCC(=O)O

The subject of assay [1] is mice. Description: In vivo delivery of pGL4 plasmid DNA, intramuscular administration, bioluminescence imaging. The settings on record: IM, 2.5 μg pGL4 plasmid. As to the method:
FIGS. 7A-7B show the potency of ADGN-peptide variants for in vivo delivery of Luciferase expressing plasmid pGL4 via intramuscular administration in mice. ADGN-peptide/pGL4 luc particles containing 2.5 μg plasmid DNA were formed in sterile water, and then diluted in 5% sucrose. Mice received IV injection of 25 μl ADGN-peptide/pGL4 complexes. Luciferase expression was monitored by bioluminescence imaging after 12 h, 24 h and 48h (A). FIG. 7B show bioluminescence imaging at 24 hr in control and treated groups.
Stable ADGN-peptides/pGL4.11 DNA were evaluated for in vivo delivery of Luciferase mRNA via intravenous and intramuscular administrations. Animals were treated with single dose of pGL4.11 plasmid DNA of 5 μg. via IV and 2.5 μg via intramuscular administration.
For IM administration, mice received 25 μl (2.5 μg of pGL4 plasmid) IV injection of either ADGN-100/PGL4, ADGN-106/PGL4, ADGN-100RI/PGL4, ADGN-100hydro1/PGL4, ADGN-100hydro6/PGL4, ADGN-100 stearyl/PGL4 or ADGN-100/PGL4 complexes containing 10% or 20% of ADGN-100PEG (2 animals per group). As control, mice from group 3 (2 animals per group) received IV injection of 25 μl of naked PGL4 plasmid (2.5 μg).
Luciferase expression was monitored by bioluminescence. Bioluminescence imaging was performed after 12, 24, 48 and 72 hrs. Mice received an i.p. injection of 150 μg/g luciferin for noninvasive bioluminescence imaging (IVIS Kinetic; PerkinElmer, Waltham, MA, USA).

Assay [2] has as its system mice. Description: In vivo delivery of Luciferase mRNA, intravenous administration, bioluminescence imaging. The settings on record: 5 μg Luc mRNA; for mRNA / luciferase expression and tissues: single dose. As to the method:
FIGS. 4A-4D show the potency of ADGN-peptide variants for in vivo delivery of Luciferase mRNA via intravenous administration in mice. ADGN-peptide/luc mRNA particles containing 5 μg mRNA were formed in sterile water, and then diluted in 5% sucrose. Mice received IV injection of 100 μl ADGN-peptide/mRNA complexes. mRNA LUC expression was monitored by bioluminescence imaging after 12 h, 24 h, 48 h and 72 h. FIG. 4B show bioluminescence imaging at 24 hr in control and treated groups. Semi-quantitative data of luciferase signal in the liver (C) and in the lung (D) were obtained using the manufacturer's software (Living Image; PerkinElmer). Results were then expressed as values relative to day 0.
Stable ADGN-peptides/mRNA were evaluated for in vivo delivery of Luciferase mRNA via intravenous and intramuscular administrations. Animals were treated with single dose of 5 moU modified Luc mRNA of 5 μg. 5 moU modified Luc mRNA (5 μg) in sterile water (GIBCO) were mixed with ADGN peptide (sterile water), volume for each sample was adjusted to 100 μl, with sterile water containing 5% Sucrose. Samples were mixed gently with vortex for 1 minute at low speed and incubated for 30 min at room temperature. Samples were filtered on 0.45 μm PES filters prior administration. For IV administration Mice received 100 μl intravenous (IV) injection of either ADGN-106/mRNA, ADGN-100/mRNA, ADGN-106RI/mRNA, ADGN-100-stearyl/mRNA, ADGN-100Hydro1/mRNA, ADGN-100Hydro2 or ADGN/mRNA complexes containing 10% of ADGN-100PEG (3 animals per group). As control, mice from group 3 (2 animals per group) received IV injection of 100 μl of naked 5 moU modified Luc mRNA (5 μg). For IM administration, mice received 25 μl (5 μg mRNA) IV injection of either ADGN-100/mRNA, ADGN-106/mRNA, ADGN-106RI/mRNA or ADGN/mRNA complexes containing 10% or 20% of ADGN-100PEG (2 animals per group). As control, mice from group 3 (2 animals per group) received IV injection of 25 μl of naked 5 moU modified Luc mRNA (5 μg).
mRNA Luc expression was monitored by bioluminescence. Bioluminescence imaging was performed after 12, 24, 48 and 72 hrs. Mice received an i.p. injection of 150 μg/g luciferin for noninvasive bioluminescence imaging (IVIS Kinetic; PerkinElmer, Waltham, MA, USA).

A further assay relates to mice or rat models. Description: Summary of cargo delivery to targeted organ (Table 1). Type of assay: in vivo. From the text:
Table 1 lists a summary of cell-penetrating peptides that have been proven successful in delivering various cargo molecules to on or more targeted organ (e.g., by intravenous (IV), intramuscular (IM), or subcutaneous (SQ) administration, or intratraccheal instillation or nebulization (NB)) in mice or rat models.

[3] abbreviates: cargoes and route (IV, IM, SQ, NB) per peptide as listed in Table 1.

On to “Ac-GYVS-Aun-KWRSALWRWRLWRVRSWSR-NH2 (Ac-GYVS[Aun]KWRSALWRWRLWRVRSWSR-NH2; SMILES CC(=O)NCC(=O)N[C@@H](Cc1ccc(O)cc1)C(=O)N[C@H](C(=O)N[C@@H](CO)C(=O)NCCCCCCCCCCC(=O)N[C@@H](CCCCN)C(=O)N[C@@H](Cc1c[nH]c2ccccc12)C(=O)N[C@@H](CCCNC(=N)N)C(=O)N[C@@H](CO)C(=O)N[C@@H](C)C(=O)N[C@@H](CC(C)C)C(=O)N[C@@H](Cc1c[nH]c2ccccc12)C(=O)N[C@@H](CCCNC(=N)N)C(=O)N[C@@H](Cc1c[nH]c2ccccc12)C(=O)N[C@@H](CCCNC(=N)N)C(=O)N[C@@H](CC(C)C)C(=O)N[C@@H](Cc1c[nH]c2ccccc12)C(=O)N[C@@H](CCCNC(=N)N)C(=O)N[C@H](C(=O)N[C@@H](CCCNC(=N)N)C(=O)N[C@@H](CO)C(=O)N[C@@H](Cc1c[nH]c2ccccc12)C(=O)N[C@@H](CO)C(=O)N[C@@H](CCCNC(=N)N)C(N)=O)C(C)C)C(C)C) [ADGN-100 hydro-6]”, for which the luciferase expression result in the assay on mice [1] is “mediated Luciferase expression following IM administration”.
Regarding “βAKWRSAGWRWRLW RVRSWSR (AKWRSAGWRWRLWRVRSWSR; N-terminal beta-alanine; VARIANT 1 beta-A) [ADGN-100]”, the luciferase expression result in the assay with mice [1] is recorded as “mediated Luciferase expression following IM administration”. Besides, the “mRNA / luciferase expression and tissues” value with mice [2] was “mainly observed in the liver and at lower level in the lung and the kidney”. Further, the “Targeted Organ” value in the assay on mice or rat models (cargoes and route (IV, IM, SQ, NB) per peptide as listed in Table 1, listed as ADGN-100a) is recorded as “Lung/Liver/; also recorded: Kidney/Pancreas”.
“rswsrvrwlrwrwgasrwk ([dR][dS][dW][dS][dR][dV][dR][dW][dL][dR][dW][dR][dW]G[dA][dS][dR][dW][dK]; also: retro-inverso) [ADGN-100-RI]”: in the assay with mice [1], the “increase of luciferase expression in the muscle / efficiency relative to ADGN-100” value worked out at 6 fold and the luciferase expression entry was “mediated Luciferase expression following IM administration”. Moreover, the “Targeted Organ” value in the assay on mice or rat models (setting [3]) is reported as “Liver/Lung/; also recorded: Kidney/Spleen”.
Turning to “akwllrwlsrwlrwlarwlr ([dA][dK][dW][dL][dL][dR][dW][dL][dS][dR][dW][dL][dR][dW][dL][dA][dR][dW][dL][dR]; also: retro-inverso) [ADGN-106-RI]”, the “increase of luciferase expression / efficiency relative to ADGN-106” value in the assay with mice [2] (all / different tissues) stood at 2 fold. Further, the “mRNA / luciferase expression and tissues” value in the assay with mice [2] was “mainly observed in the liver and at lower level in the lung and the kidney”. Moreover, the “Targeted Organ” value in the assay on mice or rat models (setting [3]) was “Liver/Lung”.
Take “βALWRALWRLWRSLWRLLWKA ([βAla]LWRALWRLWRSLWRLLWKA) [ADGN-106]”: the luciferase expression result in the assay on mice [1] is reported as “no significant expression”. In addition, in the assay with mice [2], the “efficiency relative to ADGN-100” value was 4 folds; the “efficiency relative to ADGN-100 stearyl” value amounted to 2 folds; the “mRNA / luciferase expression and tissues” value was “mainly observed in the liver and at lower level in the lung and the kidney”. Further, in the assay with mice or rat models (setting [3]), the “Targeted Organ” value is “Liver/Lung”.
Take “Ac-GYVS-(G)4-KWRSALWRWRLWRVRSWSR-NH2 (Ac-GYVSGGGGKWRSALWRWRLWRVRSWSR-NH2) [ADGN-100 hydro-2]”: in the assay on mice [1], the luciferase expression result was “no significant expression”. Further, the “mRNA / luciferase expression and tissues” value in the assay on mice [2] is listed as “negligible luciferase expression”.
For “Stearyl-βA-KWRSALWRWRLWRVRSWSR-NH2 (Stearyl-[βAla]KWRSALWRWRLWRVRSWSR-NH2; not fully specified; printed as Stearyl-βA-KWRSALWRWRLWRVRSWSR-NH2) [ADGN-100 Stearyl]”, the “mRNA / luciferase expression and tissues” value with mice [2] was “mainly observed in the liver and at lower level in the lung and the kidney”. Further, the “Targeted Organ” value in the assay on mice or rat models (setting [3]) is listed as “Lung/Liver/; also recorded: Kidney/Pancreas”.
